One assay addresses BRM (Homo sapiens, UniProt P51531). Briefly: ATPase catalytic activity assay of BRM (ADP-Glo). To be noted: for IC50: read-out: BRM IC50 (μM)*. It is filed as biochemical. The essentials: (§1)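 Measurement is luminescence, reflecting ADP produced by ATPase turnover. The two-step ADP-Glo detection consists of ATP depletion for 40 min and ADP-to-ATP conversion with luciferase for 60 min, both at room temperature.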
A general note: ADP-Glo turns the ADP formed in a reaction into a luminescent signal.

The next assay deals with BRG-1 (Homo sapiens, UniProt P51532). Briefly: ATPase catalytic activity assay of BRG-1 (ADP-Glo). In kind it is biochemical. To be noted: ATPase catalytic activity, ADP-Glo; for IC50: read-out: BRG1 IC50 (μM)*; for Emax: read-out: BRG1 Max % Inhibition. The method, boiled down: as §1

The IC50 is the concentration that inhibits the measured activity by half.

BRM, sequence (P51531 whole entry): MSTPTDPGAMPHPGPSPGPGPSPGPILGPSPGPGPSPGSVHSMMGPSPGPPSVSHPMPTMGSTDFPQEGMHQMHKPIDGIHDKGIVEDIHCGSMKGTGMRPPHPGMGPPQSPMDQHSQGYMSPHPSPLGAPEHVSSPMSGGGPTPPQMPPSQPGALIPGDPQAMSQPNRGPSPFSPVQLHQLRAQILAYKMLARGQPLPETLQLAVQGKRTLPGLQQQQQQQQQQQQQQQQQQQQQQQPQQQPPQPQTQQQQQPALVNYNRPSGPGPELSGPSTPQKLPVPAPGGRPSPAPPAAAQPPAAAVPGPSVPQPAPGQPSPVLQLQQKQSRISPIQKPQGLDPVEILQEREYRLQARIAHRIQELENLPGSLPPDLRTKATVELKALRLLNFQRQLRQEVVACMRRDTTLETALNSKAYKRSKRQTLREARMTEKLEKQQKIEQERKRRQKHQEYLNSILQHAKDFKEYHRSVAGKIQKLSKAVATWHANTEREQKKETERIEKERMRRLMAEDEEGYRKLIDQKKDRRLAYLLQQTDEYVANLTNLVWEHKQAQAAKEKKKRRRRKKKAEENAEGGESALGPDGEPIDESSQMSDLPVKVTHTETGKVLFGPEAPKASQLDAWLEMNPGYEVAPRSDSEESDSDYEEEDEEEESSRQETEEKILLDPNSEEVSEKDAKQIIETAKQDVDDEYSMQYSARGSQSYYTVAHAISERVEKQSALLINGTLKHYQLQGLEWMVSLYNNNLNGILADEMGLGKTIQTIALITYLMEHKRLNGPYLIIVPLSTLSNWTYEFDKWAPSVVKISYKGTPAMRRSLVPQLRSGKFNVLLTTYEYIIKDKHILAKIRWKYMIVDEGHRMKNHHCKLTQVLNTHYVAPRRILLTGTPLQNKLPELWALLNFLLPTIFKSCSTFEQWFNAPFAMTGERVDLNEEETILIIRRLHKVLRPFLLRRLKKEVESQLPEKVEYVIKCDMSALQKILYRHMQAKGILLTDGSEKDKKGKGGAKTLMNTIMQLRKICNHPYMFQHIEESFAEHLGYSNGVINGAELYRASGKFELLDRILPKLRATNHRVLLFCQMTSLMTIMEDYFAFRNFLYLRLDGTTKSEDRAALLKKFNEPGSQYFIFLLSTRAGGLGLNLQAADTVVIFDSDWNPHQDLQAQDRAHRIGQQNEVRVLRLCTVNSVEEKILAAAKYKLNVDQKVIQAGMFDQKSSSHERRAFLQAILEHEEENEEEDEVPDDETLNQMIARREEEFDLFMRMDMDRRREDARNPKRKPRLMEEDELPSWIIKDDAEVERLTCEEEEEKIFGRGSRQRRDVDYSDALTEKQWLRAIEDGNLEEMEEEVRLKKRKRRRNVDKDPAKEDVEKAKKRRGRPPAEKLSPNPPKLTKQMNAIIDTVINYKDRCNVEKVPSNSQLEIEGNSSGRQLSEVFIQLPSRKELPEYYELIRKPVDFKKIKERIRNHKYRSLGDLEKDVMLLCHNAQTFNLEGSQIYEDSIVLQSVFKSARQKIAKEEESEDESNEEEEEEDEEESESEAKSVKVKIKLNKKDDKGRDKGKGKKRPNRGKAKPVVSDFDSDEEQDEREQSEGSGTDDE
BRG-1, sequence (P51532 whole entry): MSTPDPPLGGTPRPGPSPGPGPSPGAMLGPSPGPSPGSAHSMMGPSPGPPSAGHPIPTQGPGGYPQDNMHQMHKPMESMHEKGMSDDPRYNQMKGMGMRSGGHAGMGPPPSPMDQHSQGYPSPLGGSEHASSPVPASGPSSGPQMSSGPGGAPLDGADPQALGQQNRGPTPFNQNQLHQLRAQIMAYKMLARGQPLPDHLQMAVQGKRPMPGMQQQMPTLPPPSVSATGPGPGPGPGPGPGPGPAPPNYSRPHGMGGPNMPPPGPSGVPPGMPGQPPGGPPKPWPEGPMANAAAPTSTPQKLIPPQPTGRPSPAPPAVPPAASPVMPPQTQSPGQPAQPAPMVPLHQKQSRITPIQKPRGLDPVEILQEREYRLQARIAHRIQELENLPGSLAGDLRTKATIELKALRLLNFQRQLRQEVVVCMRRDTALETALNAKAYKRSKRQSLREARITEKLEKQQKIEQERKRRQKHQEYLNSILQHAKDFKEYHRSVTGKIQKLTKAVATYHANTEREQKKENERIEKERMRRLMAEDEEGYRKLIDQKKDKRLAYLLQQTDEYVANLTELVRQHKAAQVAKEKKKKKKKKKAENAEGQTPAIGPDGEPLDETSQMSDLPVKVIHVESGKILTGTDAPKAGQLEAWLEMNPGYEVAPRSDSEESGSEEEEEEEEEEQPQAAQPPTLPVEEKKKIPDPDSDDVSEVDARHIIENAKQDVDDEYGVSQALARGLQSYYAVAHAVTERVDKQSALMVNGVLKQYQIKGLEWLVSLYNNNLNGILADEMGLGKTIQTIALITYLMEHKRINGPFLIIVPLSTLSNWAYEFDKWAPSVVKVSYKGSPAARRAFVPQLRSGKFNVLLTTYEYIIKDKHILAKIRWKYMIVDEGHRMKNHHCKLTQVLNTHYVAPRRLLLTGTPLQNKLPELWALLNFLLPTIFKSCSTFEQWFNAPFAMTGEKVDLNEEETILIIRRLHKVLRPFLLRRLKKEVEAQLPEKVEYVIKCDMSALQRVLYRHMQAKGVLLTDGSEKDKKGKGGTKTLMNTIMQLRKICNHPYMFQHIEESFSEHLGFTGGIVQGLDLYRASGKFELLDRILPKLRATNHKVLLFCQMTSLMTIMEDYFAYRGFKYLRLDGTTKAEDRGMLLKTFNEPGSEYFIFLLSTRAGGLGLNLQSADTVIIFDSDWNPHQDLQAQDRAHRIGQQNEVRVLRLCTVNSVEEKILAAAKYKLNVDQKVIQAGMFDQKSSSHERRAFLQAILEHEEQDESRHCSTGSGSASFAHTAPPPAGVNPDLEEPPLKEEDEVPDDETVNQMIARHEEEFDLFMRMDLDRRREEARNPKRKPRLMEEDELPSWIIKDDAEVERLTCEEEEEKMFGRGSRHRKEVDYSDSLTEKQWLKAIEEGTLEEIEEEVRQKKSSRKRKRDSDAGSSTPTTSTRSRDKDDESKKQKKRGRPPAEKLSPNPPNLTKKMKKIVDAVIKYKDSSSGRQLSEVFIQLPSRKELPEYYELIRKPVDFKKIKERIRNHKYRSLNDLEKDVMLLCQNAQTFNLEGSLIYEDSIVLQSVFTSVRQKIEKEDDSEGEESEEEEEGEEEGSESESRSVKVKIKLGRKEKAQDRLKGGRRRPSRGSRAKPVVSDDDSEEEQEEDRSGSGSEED

On to `Cc1cc(-c2cccc(-c3csc(NC(=O)CNC(=O)c4cccc(S(=O)(=O)C(C)C)c4)n3)c2)ncn1` [Compound 127, 3-isopropylsulfonyl-N-[2-[[4-[3-(6-methylpyrimidin-4-yl)phenyl]thiazol-2-yl]amino]-2-oxoethyl] benzamide], for which, on BRM, the “BRM Max % Inhibition” value is given as above 95% and the IC50 was below 0.1 µM. Further, on BRG-1, the IC50 was 0.1 to 1 µM and the Emax is above 90%.

As for `C[C@@H]1CN(c2cccc(-c3csc(NC(=O)CNC(=O)c4ccc5c(c4)S(=O)(=O)CCCC5)n3)c2)C[C@H](C)O1` [Compound 128, N-(2-((4-(3-((cis)-2,6-dimethylmorpholino)phenyl)thiazol-2-yl)amino)-2-oxoethyl)-2,3,4,5-tetrahydrobenzo[b]thiepine-8-carboxamide 1,1-dioxide], at BRM, the “BRM Max % Inhibition” value is above 95% and the IC50 was below 0.1 µM. For the same compound, on BRG-1, the IC50 is below 0.1 µM and the Emax was above 95%.

As for `O=C(CNC(=O)c1ccc2c(c1)S(=O)(=O)CCCC2)Nc1nc(-c2cccc(-c3ccncc3)c2)cs1` [Compound 129, 1,1-dioxo-N-[2-oxo-2-[[4-[3-(4-pyridyl)phenyl]thiazol-2-yl]amino]ethyl]-2,3,4,5-tetrahydro-1benzothiepine-8-carboxamide], on BRM, the “BRM Max % Inhibition” value is given as above 95% and the IC50 was below 0.1 µM. Besides, at BRG-1, the IC50 is below 0.1 µM and the Emax was above 95%.

As for `CN1CC=Cc2ccc(C(=O)NCC(=O)Nc3nc(-c4cccc(-c5ccncc5)c4)cs3)cc2S1(=O)=O` [Compound 130, 2-methyl-1,1-dioxo-N-[2-oxo-2-[[4-[3-(4-pyridyl)phenyl]thiazol-2-yl]amino]ethyl]-3H-1,2-benzothiazepine-8-carboxamide], on BRM, the “BRM Max % Inhibition” value was above 60% and the IC50 was 0.1 to 1 µM. Besides, at BRG-1, the concentration for half-maximal inhibition (IC50) was above 5 µM and the Emax was below 30%.

`CN1CCCc2ccc(C(=O)NCC(=O)Nc3nc(-c4cccc(-c5ccncc5)c4)cs3)cc2S1(=O)=O` [Compound 131, 2-methyl-1,1-dioxo-N-[2-oxo-2-[[4-[3-(4-pyridyl)phenyl]thiazol-2-yl]amino]ethyl]-4,5-dihydro-3H-1,2-benzothiazepine-8-carboxamide]: at BRM, the “BRM Max % Inhibition” value is recorded as above 95% and the IC50 was below 0.1 µM. On BRG-1, the IC50 was in the range of 0.1 to 1 µM and the Emax is above 70%.

Take `C[C@@H]1CN(c2cccc(-c3csc(NC(=O)CNC(=O)c4cccc([C@@]5(O)CCOC5)c4)n3)n2)C[C@H](C)O1` [Compound 134, N-[2-[[4-[6-[(cis)-2,6-dimethylmorpholin-4-yl]-2-pyridyl]thiazol-2-yl]amino]-2-oxo-ethyl]-3-[(3S)-3-hydroxytetrahydrofuran-3-yl]benzamide]: at BRM, the “BRM Max % Inhibition” value was above 80% and the IC50 was 0.1 to 1 µM. Also, at BRG-1, the IC50 is 1 to 5 µM and the Emax was above 60%.

Take `C[C@@H]1CN(c2cccc(-c3csc(NC(=O)CNC(=O)c4ccc5c(c4)C(C)(O)CCO5)n3)c2)C[C@H](C)O1` (stereo partly drawn) [Compound 136, N-[2-[[4-[3-[(cis)-2,6-dimethylmorpholin-4-yl]phenyl]thiazol-2-yl]amino]-2-oxo-ethyl]-4-hydroxy-4-methylchromane-6-carboxamide]: at BRM, the “BRM Max % Inhibition” value is reported as above 90% and the half-inhibitory concentration (IC50) is 0.1 to 1 µM. For the same compound, at BRG-1, the IC50 lay within 1 to 5 µM and the Emax was above 70%.

As for `C[C@@H]1CN(c2cccc(-c3csc(NC(=O)CNC(=O)c4cccc5c4OCC[C@@]5(C)CO)n3)c2)C[C@H](C)O1` [Compound 138, (R)-N-(2-((4-(3-((cis)-2,6-dimethylmorpholino)phenyl)thiazol-2-yl)amino)-2-oxoethyl)-4-(hydroxymethyl)-4-methylchroman-8-carboxamide], at BRM, the “BRM Max % Inhibition” value is reported as above 90% and the IC50 was in the range of 0.1 to 1 µM. Besides, at BRG-1, the IC50 is above 5 µM and the Emax was above 50%.

For the compound `C[C@@H]1CN(c2cccc(-c3csc(NC(=O)CNC(=O)c4ccnc(C(C)(C)CO)c4)n3)c2)C[C@H](C)O1` [Compound 139, N-[2-[[4-[3-[(cis)-2,6-dimethylmorpholin-4-yl]phenyl]thiazol-2-yl]amino]-2-oxo-ethyl]-2-(2-hydroxy-1,1-dimethyl-ethyl)pyridine-4-carboxamide], at BRM, the “BRM Max % Inhibition” value was above 95% and the IC50 fell in the range of 0.1 to 1 µM. Besides, at BRG-1, the half-maximal inhibitory concentration (IC50) lay within 1 to 5 µM and the Emax was above 70%.

As for `C[C@@H]1CN(c2cccc(-c3csc(NC(=O)CNC(=O)c4ccc5c(c4)[C@@H]([C@H](C)O)CC5)n3)n2)C[C@H](C)O1` [Compound 140, (3S)-N-[2-[[4-[6-[(cis)-2,6-dimethylmorpholin-4-yl]-2-pyridyl]thiazol-2-yl]amino]-2-oxo-ethyl]-3-[(1S)-1-hydroxyethyl]indane-5-carboxamide], at BRM, the “BRM Max % Inhibition” value is above 95% and the IC50 is 0.1 to 1 µM. Also, at BRG-1, the IC50 was above 5 µM and the Emax is above 50%.

As to `C[C@@H]1CN(c2cccc(-c3csc(NC(=O)CNC(=O)c4ccc5c(c4)[C@H]([C@H](C)O)CC5)n3)n2)C[C@H](C)O1` [Compound 141, (3R)-N-[2-[[4-[6-[(cis)-2,6-dimethylmorpholin-4-yl]-2-pyridyl]thiazol-2-yl]amino]-2-oxo-ethyl]-3-[(1S)-1-hydroxyethyl]indane-5-carboxamide], at BRM, the “BRM Max % Inhibition” value is above 80% and the IC50 was 0.1 to 1 µM. On BRG-1, the IC50 was above 5 µM and the Emax was above 60%.

Regarding `C[C@@H]1CN(c2cccc(-c3csc(NC(=O)CNC(=O)c4ccc5c(c4)[C@@H]([C@@H](C)O)CC5)n3)n2)C[C@H](C)O1` [Compound 142, (3S)-N-[2-[[4-[6-[(cis)-2,6-dimethylmorpholin-4-yl]-2-pyridyl]thiazol-2-yl]amino]-2-oxo-ethyl]-3-[(1R)-1-hydroxyethyl]indane-5-carboxamide], on BRM, the “BRM Max % Inhibition” value was above 95% and the IC50 was below 0.1 µM. Besides, on BRG-1, the IC50 was 0.1 to 1 µM and the Emax is above 80%.

On to `C[C@@H]1CN(c2cccc(-c3csc(NC(=O)CNC(=O)c4cnc5c(c4)[C@](C)(CO)CC5)n3)c2)C[C@H](C)O1` [Compound 143, (R)-N-(2-((4-(3-((cis)-2,6-dimethylmorpholino)phenyl)thiazol-2-yl)amino)-2-oxoethyl)-5-(hydroxymethyl)-5-methyl-6,7-dihydro-5H-cyclopenta[b]pyridine-3-carboxamide], for which, at BRM, the “BRM Max % Inhibition” value is above 80% and the IC50 was in the range of 0.1 to 1 µM. Besides, on BRG-1, the IC50 was above 5 µM and the Emax was above 60%.

As for `C[C@@H]1CN(c2cccc(-c3csc(NC(=O)CNC(=O)c4cnc5c(c4)[C@@](C)(CO)CC5)n3)c2)C[C@H](C)O1` [Compound 144, (S)-N-(2-((4-(3-((cis)-2,6-dimethylmorpholino)phenyl)thiazol-2-yl)amino)-2-oxoethyl)-5-(hydroxymethyl)-5-methyl-6,7-dihydro-5H-cyclopenta[b]pyridine-3-carboxamide], on BRM, the “BRM Max % Inhibition” value was above 95% and the IC50 is 0.1 to 1 µM. At BRG-1, the IC50 was 0.1 to 1 µM and the Emax was above 80%.

Regarding `C[C@@H]1CN(c2cccc(-c3csc(NC(=O)CNC(=O)c4cc(C(C)(C)CO)ccc4F)n3)n2)C[C@H](C)O1` [Compound 145, N-[2-[[4-[6-[(cis)-2,6-dimethylmorpholin-4-yl]-2-pyridyl]thiazol-2-yl]amino]-2-oxo-ethyl]-2-fluoro-5-(2-hydroxy-1,1-dimethyl-ethyl)benzamide], on BRM, the “BRM Max % Inhibition” value is above 90% and the concentration for half-maximal inhibition (IC50) lay within 0.1 to 1 µM. In addition, on BRG-1, the IC50 fell in the range of 1 to 5 µM and the Emax was above 60%.

In the case of `C[C@@H]1CN(c2cccc(-c3csc(NC(=O)CNC(=O)c4cccc5c4OCC[C@@]5(C)C#N)n3)c2)C[C@H](C)O1` [Compound 146, (R)-4-cyano-N-(2-((4-(3-((cis)-2,6-dimethylmorpholino)phenyl)thiazol-2-yl)amino)-2-oxoethyl)-4-methylchroman-8-carboxamide], at BRM, the “BRM Max % Inhibition” value is on record as above 70% and the IC50 was 0.1 to 1 µM. In addition, on BRG-1, the IC50 is above 5 µM and the Emax was above 30%.

`Cn1ccc2ccc(-c3csc(NC(=O)CNC(=O)c4cccc(C5(C#N)CCC5)c4)n3)cc2c1=O` [Compound 147, 3-(1-cyanocyclobutyl)-N-(2-((4-(2-methyl-1-oxo-1,2-dihydroisoquinolin-7-yl)thiazol-2-yl)amino)-2-oxoethyl)benzamide]: at BRM, the “BRM Max % Inhibition” value is reported as above 90% and the IC50 fell in the range of 0.1 to 1 µM. For the same compound, on BRG-1, the IC50 lay in the range of 1 to 5 µM and the Emax is above 80%.

Take `C[C@@H]1CN(c2cccc(-c3csc(NC(=O)CNC(=O)c4cccc5c4OCC[C@]5(C)C#N)n3)c2)C[C@H](C)O1` [Compound 148, (S)-4-cyano-N-(2-((4-(3-((cis)-2,6-dimethylmorpholino)phenyl)thiazol-2-yl)amino)-2-oxoethyl)-4-methylchroman-8-carboxamide]: at BRM, the “BRM Max % Inhibition” value is on record as above 70% and the IC50 lay within 0.1 to 1 µM. Further, at BRG-1, the IC50 was above 5 µM and the Emax is above 30%.

With `C[C@@H]1CN(c2cccc(-c3csc(NC(=O)CNC(=O)c4cccc(C5(CF)COC5)c4)n3)c2)C[C@H](C)O1` [Compound 149, N-(2-((4-(3-((cis)-2,6-dimethylmorpholino)phenyl)thiazol-2-yl)amino)-2-oxoethyl)-3-(3-(fluoromethyl)oxetan-3-yl)benzamide], at BRM, the “BRM Max % Inhibition” value is reported as above 95% and the concentration for half-maximal inhibition (IC50) fell in the range of 0.1 to 1 µM. In addition, on BRG-1, the IC50 was in the range of 1 to 5 µM and the Emax was above 70%.

Source of the values: patent publication US12685735B2 (Foghorn Therapeutics Inc., priority 2020, dated 2026).
